Experimental data reported in patent US9409952B2, “Peptide-compound cyclization method” (Chugai Seiyaku Kabushiki Kaisha, priority 2011, dated 2016).
Read-outs that look alike come from different tables or passages of the source. One block for each compound: values may come before it. Starred links: 1 amine or outer side, 2 acyl side, 3 side chain; linkers in the order of their positions; H or OH if unused. Positions of bridges follow the written chain, without caps; N, C: chain ends. Non-standard residues stand in square brackets, D forms with d. Residues, ends and D or L forms follow the SMILES beside them. *: point of attachment. X2 = O=C(C[C@H](N[*:1])C(F)(F)F)[*:2]; NMeF = CN[C@@H](Cc1ccccc1)C(=O)O; NMeI = CC[C@H](C)[C@H](NC)C(=O)O; NMeβAla = CN(CCC(=O)[*:2])[*:1]; NMeL = CN[C@@H](CC(C)C)C(=O)O; NMeV = CN[C@H](C(=O)O)C(C)C; NMeS = CN[C@@H](CO)C(=O)O; NMeA = CN[C@@H](C)C(=O)O; Piperidide = C1CCN(*)CC1; dNMeA = CN[C@H](C)C(=O)O; β3hA = C[C@H](N)CC(=O)O; Abu = CC[C@H](N)C(=O)O; Aib = CC(C)(N)C(=O)O; Sar = CNCC(=O)O; tBu = CC(C)(C)*

Columns and labels:
[1] = PAMPA (parallel artificial membrane permeability assay); format: in vitro ADME; details: PAMPA
Outline: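 Artificial membrane was 10% (w/v) egg lecithin plus 0.5% (w/v) cholesterol in dodecane on a PVDF filter. A 10 mM DMSO stock was added at 0.5% (v/v) to donor buffer (50 mM MOPSO, pH 6.5, 5.0% glycocholic acid). After 18 h at 37 °C, LC/MS or LC/UV gave donor and acceptor levels for Pe.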

[2] = Metabolic stability in human hepatic microsome; format: in vitro ADME; details: microsomes
[3] = membrane permeation rate (Pe), 50 mM MOPSO buffer pH 6.5 with 5.0% glycocholic acid, 37° C., 18 hours, read-out: iPAMPA Pe
[4] = pH 7.4, human hepatic microsome, NADPH(+), read-out: CL NADPH(+)

SMILES: CC[C@H](C)[C@H]1C(=O)N[C@H](C(=O)N2CCCCC2)CC(=O)N[C@H](C)C(=O)N[C@@H]([C@@H](C)O)C(=O)N(C)[C@@H](Cc2ccccc2)C(=O)N[C@@H](CC(C)C)C(=O)N2CCC[C@H]2C(=O)N(C)[C@@H](C(C)C)C(=O)N[C@@H](Cc2ccccc2)C(=O)N(C)CC(=O)N(C)[C@@H](CC(C)C)C(=O)N[C@@H](C)C(=O)N1C [DP-215] ([dA]T[NMeF]LP[NMeV]F[Sar][NMeL]A[NMeI]D-Piperidide; lactam N-12)
Papp at 18 hours, 50 µM [1, 3]: 24 ×10⁻⁶ cm/s
microsomal CLint at 1 uM [2, 4]: 35 µL/min/mg

Papp at 18 hours, 50 µM ([1]; pH 6.5): 37 ×10⁻⁶ cm/s
microsomal CLint at 1 uM ([2]; human, pH 7.4, CL NADPH(+)): 78 µL/min/mg
SMILES: CC[C@H](C)[C@H]1C(=O)N[C@@H](COC(C)(C)C)C(=O)N[C@@H](C)CC(=O)N(C)[C@@H](C)C(=O)N(C)[C@@H](Cc2ccccc2)C(=O)N(C)CC(=O)N(C)[C@@H](CC(C)C)C(=O)N[C@@H]([C@@H](C)O)C(=O)N(C)[C@@H](C)C(=O)N(C)[C@@H](CC(C)C)C(=O)N1C [DP-779] (cyclo([NMeA][NMeF][Sar][NMeL]T[NMeA][NMeL][NMeI]S(tBu)[β3hA]))

SMILES: CC(C)C[C@@H]1NC(=O)[C@H](Cc2ccccc2)N(C)C(=O)CNC(=O)[C@H](Cc2ccccc2)NC(=O)[C@H]([C@@H](C)O)NC(=O)[C@H](CC(C)C)N(C)C(=O)CCN(C)C(=O)C[C@@H](C(=O)N2CCCCC2)NC(=O)[C@H](COC(C)(C)C)NC(=O)[C@H](CC(C)C)N(C)C1=O [DP-335] ([NMeβAla][NMeL]TFG[NMeF]L[NMeL]S(tBu)D-Piperidide; lactam N-10)
Papp at 18 hours, 50 µM [1, 3]: 22 ×10⁻⁶ cm/s
microsomal CLint at 1 uM [2, 4]: 109 µL/min/mg

SMILES: CC[C@H](C)[C@H](NC(=O)[C@@H]1CC(=O)N[C@@H](C)C(=O)N[C@@H]([C@@H](C)O)C(=O)N(C)CC(=O)N[C@@H](CC(C)C)C(=O)N2CCC[C@H]2C(=O)N(C)[C@@H](CC(C)C)C(=O)N[C@@H](Cc2ccccc2)C(=O)N(C)[C@@H](Cc2ccccc2)C(=O)N(C)[C@@H](C)C(=O)N(C)[C@@H](CC(C)C)C(=O)N[C@@H](C)C(=O)N(C)[C@@H](CC(C)C)C(=O)N1)C(=O)N1CCCCC1 [DP-955] (AT[Sar]LP[NMeL]F[NMeF][NMeA][NMeL]A[NMeL]DI-Piperidide; lactam N-13)
Papp at 18 hours, 50 µM [1, 3]: 6.3 ×10⁻⁶ cm/s
microsomal CLint at 1 uM [2, 4]: 30 µL/min/mg

SMILES: CC(C)C[C@H]1C(=O)N[C@H](C(=O)N2CCCCC2)CC(=O)N(C)[C@H](C)C(=O)N(C)[C@@H](Cc2ccccc2)C(=O)N(C)[C@@H](CC(C)C)C(=O)N[C@@H]([C@@H](C)O)C(=O)N(C)[C@@H](C)C(=O)N[C@@H](COC(C)(C)C)C(=O)N1C [DP-682] ([dNMeA][NMeF][NMeL]T[NMeA]S(tBu)[NMeL]D-Piperidide; lactam N-8)
Papp at 18 hours, 50 µM [1, 3]: 13 ×10⁻⁶ cm/s
microsomal CLint at 1 uM [2, 4]: 20 µL/min/mg

SMILES: CC[C@H](C)[C@@H]1NC(=O)[C@H](C)N(C)C(=O)[C@H]([C@@H](C)O)NC(=O)CN(C)C(=O)[C@H](C)N(C)C(=O)[C@H](C)NC(=O)[C@H](C)N(C)C(=O)[C@@H](C)N(C)C(=O)C[C@@H](C(=O)N(C)[C@@H](Cc2ccccc2)C(=O)N(C)[C@@H](Cc2ccccc2)C(=O)N[C@@H](C)C(=O)N2CCCCC2)NC(=O)[C@H](Cc2ccccc2)N(C)C1=O [DP-508] ([dNMeA][NMeA]A[NMeA][Sar]T[NMeA]I[NMeF]D[NMeF][NMeF]A-Piperidide; lactam N-10)
Papp at 18 hours, 50 µM [1, 3]: 2.5 ×10⁻⁶ cm/s
microsomal CLint at 1 uM [2, 4]: 11 µL/min/mg

SMILES: CC(C)C[C@H]1C(=O)N(C)[C@@H](CC(C)C)C(=O)N[C@@H]([C@@H](C)O)C(=O)N(C)[C@@H](Cc2ccccc2)C(=O)N(C)[C@@H](CC(C)C)C(=O)N[C@H](C(=O)N(C)[C@@H](Cc2ccccc2)C(=O)N(C)[C@@H](Cc2ccccc2)C(=O)N[C@@H](C)C(=O)N2CCCCC2)CC(=O)N(C)[C@H](C)C(=O)N(C)[C@@H](Cc2ccccc2)C(=O)N(C)[C@@H](CC(C)C)C(=O)N[C@@H](C)C(=O)N1C [DP-207] ([dNMeA][NMeF][NMeL]A[NMeL][NMeL]T[NMeF][NMeL]D[NMeF][NMeF]A-Piperidide; lactam N-10)
Papp at 18 hours, 50 µM [1, 3]: 0.16 ×10⁻⁶ cm/s
microsomal CLint at 1 uM [2, 4]: 12 µL/min/mg

SMILES: CC[C@@H]1NC(=O)[C@H](CO)N(C)C(=O)[C@H](CC(C)C)N(C)C(=O)[C@H](CC(C)C)N(C)C(=O)[C@H](CC(C)C)N(C)C(=O)[C@@H](C)NC(=O)[C@H](C)NC(=O)[C@H](CC(C)C)N(C)C(=O)[C@H](CC)NC(=O)[C@H](CC(C)C)N(C)C(=O)C[C@@H](C(F)(F)F)NC1=O [DP-655] (cyclo(A[dA][NMeL][NMeL][NMeL][NMeS][Abu][X2][NMeL][Abu][NMeL]))
Papp at 18 hours, 50 µM [1, 3]: 34 ×10⁻⁶ cm/s
microsomal CLint at 1 uM [2, 4]: 62 µL/min/mg

SMILES: CC(C)C[C@H]1C(=O)N[C@@H](COC(C)(C)C)C(=O)N(C)[C@@H](Cc2ccccc2)C(=O)N(C)[C@@H](C)C(=O)N[C@@H](Cc2ccccc2)C(=O)N(C)[C@@H](C(C)C)C(=O)N[C@H](C(=O)N2CCCCC2)CC(=O)N(C)[C@H](C)C(=O)N[C@@H]([C@@H](C)O)C(=O)NCC(=O)N1C [DP-340] ([dNMeA]TG[NMeL]S(tBu)[NMeF][NMeA]F[NMeV]D-Piperidide; lactam N-10)
Papp at 18 hours, 50 µM [1, 3]: 31 ×10⁻⁶ cm/s
microsomal CLint at 1 uM [2, 4]: 86 µL/min/mg

SMILES: CC(C)C[C@@H]1NC(=O)[C@H](CC(C)C)NC(=O)[C@H](C)N(C)C(=O)C[C@@H](C(=O)N2CCCCC2)NC(=O)[C@H](C(C)C)N(C)C(=O)[C@H](CC(C)C)NC(=O)[C@H](Cc2ccccc2)NC(=O)[C@H]([C@@H](C)O)NC(=O)CN(C)C(=O)[C@H](CC(C)C)NC(=O)C(C)(C)NC1=O [DP-560] ([NMeA]LL[Aib]L[Sar]TFL[NMeV]D-Piperidide; lactam N-11)
Papp at 18 hours, 50 µM [1, 3]: 26 ×10⁻⁶ cm/s
microsomal CLint at 1 uM [2, 4]: 28 µL/min/mg
